Results: paper PMC11083565, “Computational Design of Novel Cyclic Peptides Endowed with Autophagy-Inhibiting Activity on Cancer Cell Lines” (International Journal of Molecular Sciences, 2024)
Where two headings read alike, the source gives them in different places. Where a SMILES comes first, the peptide text is derived from it. Bridges are numbered along the chain shown (N, C = ends). Where no end group is shown, it is not given here. [ ]: non-standard residue; d: D form. The star is where a group is joined. d(pT) = C[C@H](OP(=O)(O)O)[C@@H](N)C(=O)O; pY = N[C@@H](Cc1ccc(OP(=O)(O)O)cc1)C(=O)O; OBn = c1ccc(CO*)cc1; Bn = c1ccc(C*)cc1

What was measured:
A549 cells = conditions: 96 h, 5 µM
[1] = tested on: LC3-I and LC3-II expression in PC3 cells; assay: Western blot of LC3-I / LC3-II in PC3 cells; format: cell-based, human
MCF-7 cells = conditions: 96 h, 5 µM
DU145 cells = format: cell-based, human
[2] = tested on: SQSTM1/p62 expression in PC3 cells; format: cell-based, human
[3] = target: human recombinant His-tagged LC3B protein (Homo sapiens, UniProt Q9GZQ8); format: binding
bladder cancer = tested on: bladder cancer; design: method as in PMID 31574376; conditions: combination with autophagy inhibitors; ref [27]; cited from earlier work

Compound: CC(=O)N[C@@H](CC(=O)O)C(=O)N[C@@H](CCC(=O)OCc1ccccc1)C(=O)N[C@@H](C(=O)N[C@@H](CCC(=O)O)C(=O)N[C@H](Cc1ccccc1)C(=O)N[C@@H](C(=O)N[C@@H](Cc1ccc(OP(=O)(O)O)cc1)C(=O)N[C@@H](CC(C)C)C(=O)N[C@@H](CCC(=O)O)C(=O)N[C@@H]1CSSC[C@H](C(N)=O)NC(=O)[C@H](CC(=O)O)NC1=O)[C@H](C)OP(=O)(O)O)[C@H](C)OCc1ccccc1 [Pep6] (Ac-DE(OBn)[dT](Bn)E[dF][d(pT)][pY]LE[dC]D[dC]-NH2; disulfide 10-12)
- cell viability A549 (A549 cells): 76.7%
- LC3-I and LC3-II expression [1]: significantly reduced
- LC3-II/LC3-I ratio [1]: without changing the LC3-II/LC-I ratio
- LC3-II/LC3-I ratio with trehalose [1]: able to decrease the LC3-II/LC3- ratio compared to trehalose alone
- cell viability MCF-7 (MCF-7 cells): 80.7%
- effect on DU145 cell viability (DU145 cells): ineffective
- effect on PNT2 cells (PNT2 cells): ineffective
- p62 expression [2]: significantly increased
- Kd compared with LIR2-RavZ [3]: about three times lower
- duration of antitumoral effect (PC3 cells): more stable over time than Pep3
- effect on PC3 cell viability (PC3 cells): reduction in cell viability
- relative efficacy on PC3 cell viability (PC3 cells): greater efficacy of Pep6 compared to LIR2-RavZ at all doses used

Compound: CNC(=O)c1ccc(N2C(=S)N(c3ccc(C#N)c(C(F)(F)F)c3)C(=O)C2(C)C)cc1F [enzalutamide]
- apoptosis of bladder cancer (bladder cancer): effectively induced bladder cancer apoptosis in vitro and in vivo

Compound: DIDEFDLLEGDE [LIR2-RavZ, reference compound]
- cell viability A549 (A549 cells): 81.1%
- cell viability MCF-7 (MCF-7 cells): 85.4%

Compound: Cn1cnc(N)c2ncnc1-2 [Pep 3-MA, 3-methyladenine, reference compound]
- LC3-I and LC3-II expression ([1]; PC3, 3-MA 1 mM, compared with Pep3 effect): The same effect on LC3-I and LC3-II expression
